Data published in PMC11845477, “Exploring the principles behind antibiotics with limited resistance” (Nature Communications, 2025).

Tests used:
[1] = tested on: E. coli ATCC 25922 (SEN) and E. coli NCTC13846 (MDR); assay: Adaptive laboratory evolution (ALE), relative MIC of evolved lines; assay type: cell-based, Escherichia coli
In short: (§1)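 Ten parallel populations per antibiotic–ancestor pair were evolved in MHB at 37 °C, starting near 50% growth-inhibiting drug. Every 72 h they were passaged into 0.5–2.5× increasing concentrations, keeping the highest-drug well with OD600 > 0.2.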

[2] = tested on: A. baumannii ATCC 17978 (SEN) and A. baumannii ATCC BAA-1605 (MDR); assay: as above; assay type: cell-based, Acinetobacter baumannii
In short: as §1

`O=c1ccc2ncc(=O)n3c2n1C[C@H]3CN1CCC(NCc2cc3c(cn2)OCCC3)CC1` [Gepotidacin] was tested, and the “Relative MIC” value ([1]; EC-MDR (Escherichia coli NCTC 13846), evolved line 2) was 32, the “Relative MIC (log10)” value ([1]; EC-MDR (Escherichia coli NCTC 13846), evolved line 2 adapted to the named antibiotic) was 1.505 and the “Relative MIC” value ([1]; EC-MDR (Escherichia coli NCTC 13846), evolved line 4) was 16. For the same compound, the “Relative MIC (log10)” value ([1]; EC-MDR (Escherichia coli NCTC 13846), evolved line 4 adapted to the named antibiotic) was 1.204, the “Relative MIC (log10)” value ([1]; EC-MDR (Escherichia coli NCTC 13846), evolved line 6 adapted to the named antibiotic) was 1.505 and the “Relative MIC (log10)” value ([1]; EC-MDR (Escherichia coli NCTC 13846), evolved line 7 adapted to the named antibiotic) was 1.505. For the same compound, the “Relative MIC” value ([1]; EC-MDR (Escherichia coli NCTC 13846), evolved line 8) was 16, the “Relative MIC” value ([1]; EC-MDR (Escherichia coli NCTC 13846), evolved line 9) was 32 and the “Relative MIC (log10)” value ([1]; EC-MDR (Escherichia coli NCTC 13846), evolved line 9 adapted to the named antibiotic) was 1.505. For the same compound, the “Relative MIC” value ([1]; EC-MDR (Escherichia coli NCTC 13846), evolved line 10) was 32, the “Relative MIC” value ([1]; EC-MDR, Escherichia coli NCTC 13846, evolved line 1 versus ancestor) was 16 and the “Relative MIC” value ([1]; EC-MDR, Escherichia coli NCTC 13846, evolved line 2 versus ancestor) was 32. For the same compound, the “Relative MIC” value ([1]; EC-MDR, Escherichia coli NCTC 13846, evolved line 3 versus ancestor) was 8, the “Relative MIC” value ([1]; EC-MDR, Escherichia coli NCTC 13846, evolved line 4 versus ancestor) was 16 and the “Relative MIC” value ([1]; EC-MDR, Escherichia coli NCTC 13846, evolved line 6 versus ancestor) was 32. The “Relative MIC” value ([1]; EC-MDR, Escherichia coli NCTC 13846, evolved line 7 versus ancestor) was 32, the “Relative MIC” value ([1]; EC-MDR, Escherichia coli NCTC 13846, evolved line 8 versus ancestor) was 16 and the “Relative MIC” value ([1]; EC-MDR, Escherichia coli NCTC 13846, evolved line 9 versus ancestor) was 32. For the same compound, the “Relative MIC” value ([1]; EC-MDR, Escherichia coli NCTC 13846, evolved line 10 versus ancestor) was 32, the “Relative MIC” value ([1]; EC-MDR, Escherichia coli NCTC 13846, evolved line 1) was 16 and the “Relative MIC” value ([1]; EC-MDR, Escherichia coli NCTC 13846, evolved line 3) was 8. For the same compound, the “Relative MIC” value ([1]; EC-MDR, Escherichia coli NCTC 13846, evolved line 6) was 32, the “Relative MIC” value ([1]; EC-MDR, Escherichia coli NCTC 13846, evolved line 7) was 32 and the “Relative MIC (log10)” value ([1]; EC-SEN (Escherichia coli ATCC 25922), evolved line 1 adapted to the named antibiotic) was 2.107. The “Relative MIC (log10)” value ([1]; EC-SEN (Escherichia coli ATCC 25922), evolved line 2 adapted to the named antibiotic) was 1.806, the “Relative MIC” value ([1]; EC-SEN (Escherichia coli ATCC 25922), evolved line 4) was 128 and the “Relative MIC (log10)” value ([1]; EC-SEN (Escherichia coli ATCC 25922), evolved line 4 adapted to the named antibiotic) was 2.107. For the same compound, the “Relative MIC” value ([1]; EC-SEN (Escherichia coli ATCC 25922), evolved line 5) was 128, the “Relative MIC (log10)” value ([1]; EC-SEN (Escherichia coli ATCC 25922), evolved line 5 adapted to the named antibiotic) was 2.107 and the “Relative MIC” value ([1]; EC-SEN (Escherichia coli ATCC 25922), evolved line 7) was 64. The “Relative MIC” value ([1]; EC-SEN (Escherichia coli ATCC 25922), evolved line 8) was 4, the “Relative MIC” value ([1]; EC-SEN (Escherichia coli ATCC 25922), evolved line 10) was 128 and the “Relative MIC” value ([1]; EC-SEN, Escherichia coli ATCC 25922, evolved line 1 versus ancestor) was 128. For the same compound, the “Relative MIC” value ([1]; EC-SEN, Escherichia coli ATCC 25922, evolved line 2 versus ancestor) was 64, the “Relative MIC” value ([1]; EC-SEN, Escherichia coli ATCC 25922, evolved line 4 versus ancestor) was 128 and the “Relative MIC” value ([1]; EC-SEN, Escherichia coli ATCC 25922, evolved line 5 versus ancestor) was 128. For the same compound, the “Relative MIC” value ([1]; EC-SEN, Escherichia coli ATCC 25922, evolved line 7 versus ancestor) was 64, the “Relative MIC” value ([1]; EC-SEN, Escherichia coli ATCC 25922, evolved line 8 versus ancestor) was 4 and the “Relative MIC” value ([1]; EC-SEN, Escherichia coli ATCC 25922, evolved line 10 versus ancestor) was 128. The “Relative MIC” value ([1]; EC-SEN, Escherichia coli ATCC 25922, evolved line 1) was 128, the “Relative MIC” value ([1]; EC-SEN, Escherichia coli ATCC 25922, evolved line 2) was 64 and the “Relative MIC” value ([2]; AB-SEN (Acinetobacter baumannii ATCC 17978), evolved line 1) was 64. For the same compound, the “Relative MIC (log10)” value ([2]; AB-SEN (Acinetobacter baumannii ATCC 17978), evolved line 1 adapted to the named antibiotic) was 1.806, the “Relative MIC” value ([2]; AB-SEN (Acinetobacter baumannii ATCC 17978), evolved line 2) was 128 and the “Relative MIC” value ([2]; AB-SEN (Acinetobacter baumannii ATCC 17978), evolved line 3) was 128. For the same compound, the “Relative MIC” value ([2]; AB-SEN (Acinetobacter baumannii ATCC 17978), evolved line 4) was 64, the “Relative MIC (log10)” value ([2]; AB-SEN (Acinetobacter baumannii ATCC 17978), evolved line 4 adapted to the named antibiotic) was 1.806 and the “Relative MIC” value ([2]; AB-SEN (Acinetobacter baumannii ATCC 17978), evolved line 6) was 128. The “Relative MIC (log10)” value ([2]; AB-SEN (Acinetobacter baumannii ATCC 17978), evolved line 7 adapted to the named antibiotic) was 1.806, the “Relative MIC” value ([2]; AB-SEN (Acinetobacter baumannii ATCC 17978), evolved line 8) was 64 and the “Relative MIC (log10)” value ([2]; AB-SEN (Acinetobacter baumannii ATCC 17978), evolved line 8 adapted to the named antibiotic) was 1.806. For the same compound, the “Relative MIC” value ([2]; AB-SEN (Acinetobacter baumannii ATCC 17978), evolved line 9) was 64, the “Relative MIC (log10)” value ([2]; AB-SEN (Acinetobacter baumannii ATCC 17978), evolved line 9 adapted to the named antibiotic) was 1.806 and the “Relative MIC” value ([2]; AB-SEN (Acinetobacter baumannii ATCC 17978), evolved line 10) was 64. For the same compound, the “Relative MIC” value ([2]; AB-SEN, Acinetobacter baumannii ATCC 17978, evolved line 1 versus ancestor) was 64, the “Relative MIC” value ([2]; AB-SEN, Acinetobacter baumannii ATCC 17978, evolved line 2 versus ancestor) was 128 and the “Relative MIC” value ([2]; AB-SEN, Acinetobacter baumannii ATCC 17978, evolved line 3 versus ancestor) was 128. For the same compound, the “Relative MIC” value ([2]; AB-SEN, Acinetobacter baumannii ATCC 17978, evolved line 4 versus ancestor) was 64, the “Relative MIC” value ([2]; AB-SEN, Acinetobacter baumannii ATCC 17978, evolved line 6 versus ancestor) was 128 and the “Relative MIC” value ([2]; AB-SEN, Acinetobacter baumannii ATCC 17978, evolved line 7 versus ancestor) was 64. For the same compound, the “Relative MIC” value ([2]; AB-SEN, Acinetobacter baumannii ATCC 17978, evolved line 8 versus ancestor) was 64, the “Relative MIC” value ([2]; AB-SEN, Acinetobacter baumannii ATCC 17978, evolved line 9 versus ancestor) was 64 and the “Relative MIC” value ([2]; AB-SEN, Acinetobacter baumannii ATCC 17978, evolved line 10 versus ancestor) was 64. For the same compound, the “Relative MIC” value ([2]; AB-SEN, Acinetobacter baumannii ATCC 17978, evolved line 7) was 64.
